Laboratory results reported in patent US4147787A, “4,5,6,7-Tetrahydro-thieno[2,3-c]-and [3,2-c]-pyridines, and therapeutic compositions containing the same” (Parcor, priority 1977, dated 1979).

How the values were obtained:
[1] = Acute toxicity (LD50, method according to Miller and Tainter); conditions: mouse, in vivo, mice, intravenous, read-out: LD50 /24h/kg body weight
[2] = system: A.D.P. induced blood-platelet aggregation; assay: A.D.P. induced blood-platelet aggregation; assay type: in vivo, Wistar rats; conditions: Rattus norvegicus, po; 100 mg/kg orally, rats, 3 hours after treatment, 10 μM A.D.P. solution; read-out: Percent inhibition of blood-platelet aggregation, A.D.P.
Method: (§1) A blood sample is taken from the jugular vein of Wistar rats. From this citrated blood and after centifugation, a plasma is reconstituted which contains 600,000 ± 20,000 blood-platelets per ml, which plasma is then used in all aggregation determinations.
(§2) 0.4 ml plasma is placed in a siliconized tube provided with a magnet bar, also siliconized. The tube is introduced into an aggregometer connected to an apparatus which records optical density variations. When light transmission has attained a stable value, 0.5 ml of a solution containing 10 μM A.D.P. (adenosinediphosphate) is added to the tube.
(§3) Blood-platelet aggregation induces an increase of light transmission, followed by a decrease subsequent to the deaggregation phase.
(§4) Different groups of 20 rats each are used, each group being orally administered 100 mg/kg of a test derivative.

[3] = system: Collagen-induced blood-platelet aggregation; assay: Collagen-induced blood-platelet aggregation; assay type: in vivo, Wistar rats; conditions: Rattus norvegicus, po; 100 mg/kg orally, rats, 3 hours after treatment; read-out: Percent inhibition of blood-platelet aggregation, Collagen
Method: as §1, §2, §3
The A.D.P. solution is substituted with a collagen (bovine tendon extract) solution.
as §4

[4] = system: rat globules (red corpuscles); assay: In vitro anti-sludge activity, preventive treatment (protamine sulfate); assay type: cell-based
Method: (§5) Said activity was investigated in vitro and in vivo in rats.
(§6) Thrice washed rat globules are diluted to 1/250 in physiological saline. In each of 5 tubes are placed 0.6 ml of this suspension and 0.2 ml physiological saline. To each tube is then added 0-25-50-100 and 200 μg, respectively, of the test derivative contained in 0.2 ml solution. After incubation for one hour at 37° C., 0.2 ml of a solution containing 125 μg/ml protamine sulfate are added, after which the tube is then incubated again for 0.5 hour at 37° C. The globules of each tube are then examined with a Mallases cell, and the percent free globules and the percent aggregates formed by 2, 3, 4, 5 etc.. globules is then recorded.

[5] = system: rat globules (red corpuscles); assay: In vitro anti-sludge activity, curative procedure (protamine sulfate); assay type: cell-based; conditions: 25 μg
Method: as §5, §6
The experiment was repeated according to a "curvative" procedure; the red corpuscles were first contacted with protamine sulfate and, after incubation for 0.5 hour, 0.2 ml containing 25 μg of test derivative were added thereto, which operation is followed by another incubation for one hour at 37° C. The results obtained are reported in Table III, in which the percent agglomerates as a function of size is indicated.

CN1Cc2ccsc2CC1C(=O)O (stereo not drawn) [Example 25, 5-Methyl-6-carboxy-4,5,6,7-tetrahydro-thieno[3,2-c]pyridine]
LD50 at 24 h [1]: 325 mg/kg | inhibition at 100 mg/kg [2]: 61.6% | inhibition at 100 mg/kg [3]: 92.4%

O=C(OCc1ccccc1Cl)C1Cc2sccc2CN1Cc1ccccc1Cl (stereo not drawn) [Example 13, 5-o-Chlorobenzyl-6-o-chlorobenzyloxycarbonyl-4,5,6,7-tetrahydro-thieno[3,2-c]pyridine]
inhibition at 100 mg/kg [2]: 64.4% | inhibition at 100 mg/kg [3]: 96.1% | percent agglomerates, size 2 ([4]; 25 μg): 26% | percent agglomerates, size 3 ([4]; 25 μg): 9% | percent agglomerates, size 4 ([4]; 25 μg): 0% | percent agglomerates, size 5 ([4]; 25 μg): 0% | percent agglomerates, size 6 ([4]; 25 μg): 0% | percent agglomerates, size 7 ([4]; 25 μg): 0% | percent agglomerates, size 8 ([4]; 25 μg): 0% | percent agglomerates, size 9 ([4]; 25 μg): 0% | percent agglomerates, size 10 ([4]; 25 μg): 0% | percent agglomerates, size 11 ([4]; 25 μg): 0% | percent agglomerates, size 12 ([4]; 25 μg): 0% | percent agglomerates, size 13 ([4]; 25 μg): 0% | percent free red corpuscles (size of agglomerates 1) ([4]; 25 μg): 65% | percent agglomerates, size 2 ([4]; 50 μg): 23% | percent agglomerates, size 3 ([4]; 50 μg): 5% | percent agglomerates, size 4 ([4]; 50 μg): 4% | percent agglomerates, size 5 ([4]; 50 μg): 0% | percent agglomerates, size 6 ([4]; 50 μg): 0% | percent agglomerates, size 7 ([4]; 50 μg): 0% | percent agglomerates, size 8 ([4]; 50 μg): 0% | percent agglomerates, size 9 ([4]; 50 μg): 0% | percent agglomerates, size 10 ([4]; 50 μg): 0% | percent agglomerates, size 11 ([4]; 50 μg): 0% | percent agglomerates, size 12 ([4]; 50 μg): 0% | percent agglomerates, size 13 ([4]; 50 μg): 0% | percent free red corpuscles (size of agglomerates 1) ([4]; 50 μg): 68% | percent agglomerates, size 2 ([4]; 100 μg): 8% | percent agglomerates, size 3 ([4]; 100 μg): 3% | percent agglomerates, size 4 ([4]; 100 μg): 2% | percent agglomerates, size 5 ([4]; 100 μg): 0% | percent agglomerates, size 6 ([4]; 100 μg): 0% | percent agglomerates, size 7 ([4]; 100 μg): 0% | percent agglomerates, size 8 ([4]; 100 μg): 0% | percent agglomerates, size 9 ([4]; 100 μg): 0% | percent agglomerates, size 10 ([4]; 100 μg): 0% | percent agglomerates, size 11 ([4]; 100 μg): 0% | percent agglomerates, size 12 ([4]; 100 μg): 0% | percent agglomerates, size 13 ([4]; 100 μg): 0% | percent free red corpuscles (size of agglomerates 1) ([4]; 100 μg): 87% | percent agglomerates, size 2 ([4]; 200 μg): 9% | percent agglomerates, size 3 ([4]; 200 μg): 1% | percent agglomerates, size 4 ([4]; 200 μg): 0% | percent agglomerates, size 5 ([4]; 200 μg): 0% | percent agglomerates, size 6 ([4]; 200 μg): 0% | percent agglomerates, size 7 ([4]; 200 μg): 0% | percent agglomerates, size 8 ([4]; 200 μg): 0% | percent agglomerates, size 9 ([4]; 200 μg): 0% | percent agglomerates, size 10 ([4]; 200 μg): 0% | percent agglomerates, size 11 ([4]; 200 μg): 0% | percent agglomerates, size 12 ([4]; 200 μg): 0% | percent agglomerates, size 13 ([4]; 200 μg): 0% | percent free red corpuscles (size of agglomerates 1) ([4]; 200 μg): 90% | percent agglomerates, size 2 [5]: 9% | percent agglomerates, size 3 [5]: 5% | percent agglomerates, size 4 [5]: 0% | percent agglomerates, size 5 [5]: 0% | percent agglomerates, size 6 [5]: 0% | percent agglomerates, size 7 [5]: 0% | percent agglomerates, size 8 [5]: 0% | percent agglomerates, size 9 [5]: 0% | percent agglomerates, size 10 [5]: 0% | percent free red corpuscles (size of agglomerates 1) [5]: 86%

O=C(O)[C@@H]1NCc2sccc2[C@@H]1O (relative stereo) [Example 5, 5-Carboxy-4-hydroxy-4,5,6,7-tetrahydro-thieno[2,3-c]pyridine]
inhibition at 100 mg/kg [2]: 62.3% | inhibition at 100 mg/kg [3]: 90.5% | percent agglomerates, size 2 [5]: 11% | percent agglomerates, size 3 [5]: 3% | percent agglomerates, size 4 [5]: 0% | percent agglomerates, size 5 [5]: 0% | percent agglomerates, size 6 [5]: 0% | percent agglomerates, size 7 [5]: 0% | percent agglomerates, size 8 [5]: 0% | percent agglomerates, size 9 [5]: 0% | percent agglomerates, size 10 [5]: 0% | percent free red corpuscles (size of agglomerates 1) [5]: 86%

COC(=O)C1Cc2sc(Cl)cc2CN1 (stereo not drawn) [Example 29]
inhibition at 100 mg/kg [2]: 62.7% | inhibition at 100 mg/kg [3]: 92.7% | percent agglomerates, size 2 [5]: 9% | percent agglomerates, size 3 [5]: 2% | percent agglomerates, size 4 [5]: 1% | percent agglomerates, size 5 [5]: 0% | percent agglomerates, size 6 [5]: 0% | percent agglomerates, size 7 [5]: 0% | percent agglomerates, size 8 [5]: 0% | percent agglomerates, size 9 [5]: 0% | percent agglomerates, size 10 [5]: 0% | percent free red corpuscles (size of agglomerates 1) [5]: 87%

O=C(O)C1Cc2sccc2CN1 (stereo not drawn) [Example 2, 6-Carboxy-4,5,6,7-tetrahydro-thieno[3,2-c]pyridine]
LD50 at 24 h [1]: 235 mg/kg

O=C(O)[C@@H]1NCc2ccsc2[C@@H]1O (relative stereo) [Example 1, 6-Carboxy-7-hydroxy-4,5,6,7-tetrahydro-thieno[3,2-c]pyridine]
LD50 at 24 h [1]: 118 mg/kg | inhibition at 100 mg/kg [2]: 63.8% | inhibition at 100 mg/kg [3]: 95.8% | percent agglomerates, size 2 ([4]; 25 μg): 25% | percent agglomerates, size 3 ([4]; 25 μg): 11% | percent agglomerates, size 4 ([4]; 25 μg): 0% | percent agglomerates, size 5 ([4]; 25 μg): 0% | percent agglomerates, size 6 ([4]; 25 μg): 0% | percent agglomerates, size 7 ([4]; 25 μg): 0% | percent agglomerates, size 8 ([4]; 25 μg): 0% | percent agglomerates, size 9 ([4]; 25 μg): 0% | percent agglomerates, size 10 ([4]; 25 μg): 0% | percent agglomerates, size 11 ([4]; 25 μg): 0% | percent agglomerates, size 12 ([4]; 25 μg): 0% | percent agglomerates, size 13 ([4]; 25 μg): 0% | percent free red corpuscles (size of agglomerates 1) ([4]; 25 μg): 64% | percent agglomerates, size 2 ([4]; 50 μg): 24% | percent agglomerates, size 3 ([4]; 50 μg): 5% | percent agglomerates, size 4 ([4]; 50 μg): 2% | percent agglomerates, size 5 ([4]; 50 μg): 0% | percent agglomerates, size 6 ([4]; 50 μg): 0% | percent agglomerates, size 7 ([4]; 50 μg): 0% | percent agglomerates, size 8 ([4]; 50 μg): 0% | percent agglomerates, size 9 ([4]; 50 μg): 0% | percent agglomerates, size 10 ([4]; 50 μg): 0% | percent agglomerates, size 11 ([4]; 50 μg): 0% | percent agglomerates, size 12 ([4]; 50 μg): 0% | percent agglomerates, size 13 ([4]; 50 μg): 0% | percent free red corpuscles (size of agglomerates 1) ([4]; 50 μg): 69% | percent agglomerates, size 2 ([4]; 100 μg): 7% | percent agglomerates, size 3 ([4]; 100 μg): 4% | percent agglomerates, size 4 ([4]; 100 μg): 3% | percent agglomerates, size 5 ([4]; 100 μg): 0% | percent agglomerates, size 6 ([4]; 100 μg): 0% | percent agglomerates, size 7 ([4]; 100 μg): 0% | percent agglomerates, size 8 ([4]; 100 μg): 0% | percent agglomerates, size 9 ([4]; 100 μg): 0% | percent agglomerates, size 10 ([4]; 100 μg): 0% | percent agglomerates, size 11 ([4]; 100 μg): 0% | percent agglomerates, size 12 ([4]; 100 μg): 0% | percent agglomerates, size 13 ([4]; 100 μg): 0% | percent free red corpuscles (size of agglomerates 1) ([4]; 100 μg): 86% | percent agglomerates, size 2 ([4]; 200 μg): 9% | percent agglomerates, size 3 ([4]; 200 μg): 2% | percent agglomerates, size 4 ([4]; 200 μg): 0% | percent agglomerates, size 5 ([4]; 200 μg): 0% | percent agglomerates, size 6 ([4]; 200 μg): 0% | percent agglomerates, size 7 ([4]; 200 μg): 0% | percent agglomerates, size 8 ([4]; 200 μg): 0% | percent agglomerates, size 9 ([4]; 200 μg): 0% | percent agglomerates, size 10 ([4]; 200 μg): 0% | percent agglomerates, size 11 ([4]; 200 μg): 0% | percent agglomerates, size 12 ([4]; 200 μg): 0% | percent agglomerates, size 13 ([4]; 200 μg): 0% | percent free red corpuscles (size of agglomerates 1) ([4]; 200 μg): 89%
